In US11840686B2, “Modulation of prekallikrein (PKK) expression” (Ionis Pharmaceuticals, Inc., priority 2013, dated 2023):
Strand notation (5' to 3'): a small letter for the sugar, then the base; units joined by * are phosphorothioate-linked, units joined directly phosphodiester-linked; [ ] holds rarer units or linkages, { } end groups; capitals alone tell only the bases. e = 2'-O-(2-methoxyethyl) (MOE); [5mC] = 5-methylcytosine; d = 2'-deoxy (DNA)

System: human PKK mRNA
Test: Antisense inhibition of human PKK mRNA in HepaRG cells, 5,000 nM (Example 2)
Format: cell-based
Procedure, shortened: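 HepaRG cells, 20,000 per well, were electroporated with 5,000 nM MOE gapmer (phosphorothioate, 5-methylcytosine) and incubated about 24 hours. PKK mRNA was quantified by qRT-PCR with primer probe set RTS3454, normalized to RIBOGREEN total RNA, and expressed as percent inhibition versus untreated controls.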

[1] = HepaRG cells, electroporation with 5,000 nM antisense oligonucleotide, approximately 24 hours, PKK mRNA by RT-PCR (RTS3454), relative to untreated control cells, Table 6 experiment
[2] = Table 7, HepaRG cells, electroporation with 5,000 nM antisense oligonucleotide, approx. 24 hours, PKK mRNA by RT-PCR (RTS3454), relative to untreated control cells
[3] = Table 8, HepaRG cells, electroporation with 5,000 nM antisense oligonucleotide, approx. 24 hours, PKK mRNA by RT-PCR (RTS3454), relative to untreated control cells
[4] = human PKK mRNA in HepaRG cells, 5-10-5 gapmers, Table 14
[5] = HepaRG cells, electroporation with 5,000 nM antisense oligonucleotide, approximately 24 hours, PKK mRNA by RT-PCR (RTS3454), relative to untreated control cells, Table 5 experiment
[6] = HepaRG cells, 5,000 nM antisense oligonucleotide, 5-10-5 gapmers, Table 16
[7] = human PKK mRNA, HepaRG cells, 5-10-5 motif oligonucleotides targeting SEQ ID NO: 1 and 10
[8] = Table 13, human PKK mRNA in HepaRG cells, 5-10-5 gapmers
[9] = HepaRG cells, 5,000 nM antisense oligonucleotide, 5-10-5 gapmers, Table 17
[10] = HepaRG cells, electroporation, 5,000 nM antisense oligonucleotide, approx. 24 hours, primer probe set RTS3454, relative to untreated control cells, Table 11
[11] = human PKK mRNA, HepaRG cells, 5,000 nM antisense oligonucleotide, Table 18

Substance: 547354 (eA*eT*eT*eG*eT*dT*d[5mC]*d[5mC]*dG*dG*dT*dA*d[5mC]*dT*d[5mC]*eT*eG*e[5mC]*e[5mC]*eT; antisense) [compound 547354]
- % inhibition [1]: 89%

Substance: 546205 (antisense eG*eT*eA*e[5mC]*eT*dT*dT*dA*dA*dT*dA*dG*dG*d[5mC]*dA*eA*eT*eT*eG*eT) [compound 546205]
- % inhibition [1]: 83%

Substance: 547395 (eA*eA*eG*eT*eT*d[5mC]*dT*dT*dT*dT*dG*d[5mC]*dA*dG*dG*eT*eT*eA*eA*eA; antisense) [compound 547395]
- % inhibition [2]: 15%

Substance: 547436 (antisense e[5mC]*eT*e[5mC]*e[5mC]*e[5mC]*d[5mC]*dA*dA*dG*dA*dA*dG*dA*dG*dT*eT*eT*eG*eT*eT) [compound 547436]
- % inhibition [3]: 0%

Substance: 547592 (eT*e[5mC]*e[5mC]*eT*eA*dT*dA*dA*d[5mC]*dT*dA*dT*dA*dA*d[5mC]*eA*eG*eT*eA*eT; antisense) [compound 547592]
- % inhibition [4]: 27%

Substance: 547310 (antisense eA*eT*e[5mC]*eT*eT*dT*d[5mC]*dA*dA*dG*dA*dA*dG*d[5mC]*dA*eA*e[5mC]*e[5mC]*eA*eA) [compound 547310]
- % inhibition [5]: 81%

Substance: 547719 (eT*eA*e[5mC]*e[5mC]*eA*dA*dG*d[5mC]*dT*dT*dG*dT*dA*dG*dA*eA*eG*eG*eG*eA; antisense) [compound 547719]
- % inhibition [6]: 69%

Substance: 546167 (e[5mC]*eT*e[5mC]*e[5mC]*eA*dT*dG*dT*d[5mC]*dA*dT*dT*dG*dA*dT*eT*eG*eA*eA*e[5mC]; antisense) [compound 546167]
- % inhibition [5]: 73%

Substance: 547645 (eA*eT*eA*eT*e[5mC]*dA*d[5mC]*dT*dG*dT*d[5mC]*d[5mC]*dT*dA*dT*eA*eA*e[5mC]*eT*eA; antisense) [compound 547645]
- % inhibition [7]: 60%

Substance: 547286 (antisense eA*eG*eA*e[5mC]*eA*dT*d[5mC]*d[5mC]*dA*d[5mC]*dA*dG*dG*dA*dA*eA*e[5mC]*eT*eG*eT) [compound 547286]
- % inhibition [5]: 68%

Substance: 547296 (antisense eT*eG*e[5mC]*eA*e[5mC]*d[5mC]*dT*d[5mC]*dA*dT*d[5mC]*dT*dG*dG*d[5mC]*eA*eG*eT*eA*eT) [compound 547296]
- % inhibition [5]: 72%

Substance: 547367 (eA*eT*e[5mC]*eT*eG*dG*dA*dG*dT*dG*dA*dG*dA*dA*d[5mC]*e[5mC]*e[5mC]*eT*eG*eG; antisense) [compound 547367]
- % inhibition [2]: 76%

Substance: 546426 (eT*e[5mC]*eT*e[5mC]*eT*dG*dG*dT*d[5mC]*dA*dA*dT*d[5mC]*dT*dG*eA*e[5mC]*eT*eA*eG; antisense) [compound 546426]
- % inhibition (HepaRG cells, electroporation, 5,000 nM antisense oligonucleotide, approx. 24 hours, primer probe set RTS3454, relative to untreated control cells, Table 12): 49%

Substance: 546902 (e[5mC]*eA*e[5mC]*eT*eG*dT*d[5mC]*d[5mC]*dT*dA*dT*dA*dA*d[5mC]*dT*eA*eT*eA*eA*e[5mC]; antisense) [compound 546902]
- % inhibition [7]: 71%

Substance: 547692 (antisense e[5mC]*eA*e[5mC]*eT*eG*dT*dA*d[5mC]*d[5mC]*dT*dA*dT*dA*dA*d[5mC]*eT*eG*eT*eA*eA) [compound 547692]
- % inhibition [6]: 47%

Substance: 547319 (antisense eG*eA*eA*eT*eG*dT*d[5mC]*d[5mC]*dA*dG*dA*dA*dA*d[5mC]*dT*eG*e[5mC]*eA*e[5mC]*e[5mC]) [compound 547319]
- % inhibition [1]: 62%

Substance: 547649 (eA*e[5mC]*e[5mC]*eT*eA*dT*dA*dA*d[5mC]*dA*dG*dT*dA*dT*d[5mC]*eA*e[5mC]*eT*eG*eT; antisense) [compound 547649]
- % inhibition [7]: 73%

Substance: 547578 (eG*eT*e[5mC]*e[5mC]*eT*dA*dT*dA*dA*d[5mC]*dT*d[5mC]*dT*dA*dA*e[5mC]*eA*eG*eT*eA; antisense) [compound 547578]
- % inhibition [8]: 30%

Substance: 546746 (eT*e[5mC]*e[5mC]*eT*eG*dT*dT*dG*d[5mC]*d[5mC]*dT*dG*dA*d[5mC]*dA*eT*eG*e[5mC]*eT*eA; antisense) [compound 546746]
- % inhibition [8]: 65%

Substance: 547691 (antisense eA*e[5mC]*eT*eG*eT*dA*dA*d[5mC]*dA*dA*dT*dA*dT*d[5mC]*dA*e[5mC]*eT*eG*eT*e[5mC]) [compound 547691]
- % inhibition [6]: 36%

Substance: 547735 (eG*eG*eT*eA*eG*dG*dA*dT*dT*dG*dG*dT*dG*dG*dT*eG*eG*eG*eA*eT; antisense) [compound 547735]
- % inhibition [9]: 39%

Substance: 547740 (eA*eG*eG*eT*eG*dG*dT*dG*dG*dG*dA*dT*dT*dG*dG*eT*eG*eG*eT*eG; antisense) [compound 547740]
- % inhibition [9]: 30%

Substance: 547270 (eA*eA*eA*eA*eT*dG*dA*dA*d[5mC]*dG*dG*dT*d[5mC]*dT*dT*e[5mC]*eA*eA*eG*e[5mC]; antisense) [compound 547270]
- % inhibition [5]: 68%

Substance: 546388 (e[5mC]*eT*eG*eA*eA*dA*dG*d[5mC]*dG*dG*dG*d[5mC]*dT*dT*d[5mC]*eA*eG*e[5mC]*e[5mC]*eA; antisense) [compound 546388]
- % inhibition [10]: 71%

Substance: 548742 (DNA eA*e[5mC]*eT*eG*dT*dA*d[5mC]*dT*dA*dG*dT*dT*dT*e[5mC]*e[5mC]*eT*eA; antisense) [compound 548742]
- % inhibition [11]: 50%

Substance: 547504 (antisense eG*eA*eA*e[5mC]*eT*d[5mC]*dA*dG*dG*dT*dT*dG*dT*dA*dA*eA*eA*eA*eT*eT) [compound 547504]
- % inhibition [10]: 37%

Substance: 547443 (antisense e[5mC]*e[5mC]*eA*e[5mC]*eT*dG*dG*dT*dG*dT*d[5mC]*d[5mC]*dT*dA*dT*eG*eA*eG*eT*eG) [compound 547443]
- % inhibition [3]: 70%

Substance: 547613 (antisense e[5mC]*eT*eA*eT*eA*dT*d[5mC]*dA*d[5mC]*dT*dG*dT*dA*d[5mC]*d[5mC]*eT*eG*eT*eA*eA) [compound 547613]
- % inhibition [4]: 39%

Substance: 547588 (eA*e[5mC]*eT*eA*eT*dA*dA*d[5mC]*dA*dG*dT*dA*dT*d[5mC]*dA*e[5mC]*eT*eG*eT*e[5mC]; antisense) [compound 547588]
- % inhibition [4]: 83%

Substance: 546905 (eT*eA*e[5mC]*e[5mC]*eT*dA*dT*dA*dA*d[5mC]*dA*dG*dT*dA*dT*e[5mC]*eA*e[5mC]*eT*eG; antisense) [compound 546905]
- % inhibition [7]: 65%

Substance: 546184 (antisense e[5mC]*eA*eA*eG*e[5mC]*dA*d[5mC]*dT*dT*dA*dT*dT*dT*dG*dA*eT*eG*eA*e[5mC]*e[5mC]) [compound 546184]
- % inhibition [1]: 65%

Substance: 546875 (eA*e[5mC]*eT*eA*eT*dA*dA*d[5mC]*dA*dA*dT*dA*dT*d[5mC]*dA*e[5mC]*eT*eG*eT*eA; antisense) [compound 546875]
- % inhibition [4]: 33%

Substance: 548747 (antisense eT*eA*e[5mC]*eT*dA*dG*dT*dT*dT*d[5mC]*d[5mC]*dT*dA*dT*eA*eA*e[5mC]*eT) [compound 548747]
- % inhibition [11]: 2%

Substance: 546887 (e[5mC]*e[5mC]*eT*eA*eT*dG*dT*d[5mC]*dA*d[5mC]*dT*dG*dT*dA*d[5mC]*e[5mC]*eT*eA*eT*eA; antisense) [compound 546887]
- % inhibition [7]: 82%

Substance: 547447 (antisense eA*eT*eT*eT*eG*dT*dG*dA*dG*dA*dA*dA*dG*dG*dT*eG*eT*eA*eT*e[5mC]) [compound 547447]
- % inhibition [3]: 80%

Substance: 548768 (antisense eG*eT*eA*eT*d[5mC]*dA*d[5mC]*dT*dG*dT*d[5mC]*d[5mC]*dT*eA*eT*eA*eT) [compound 548768]
- % inhibition [11]: 56%

Substance: 547394 (eT*eT*eT*eG*e[5mC]*dA*dG*dG*dT*dT*dA*dA*dA*dA*dG*eG*e[5mC]*eT*eA*eT; antisense) [compound 547394]
- % inhibition [2]: 29%

Substance: 546908 (eT*e[5mC]*eA*e[5mC]*eT*dG*dT*dA*d[5mC]*d[5mC]*dT*dA*dT*dA*dA*e[5mC]*eT*eA*eT*eA; antisense) [compound 546908]
- % inhibition [7]: 77%

Substance: 546864 (eA*eT*eA*eA*e[5mC]*dT*dA*dT*dA*dA*d[5mC]*dA*dA*dT*dA*eT*e[5mC]*eA*e[5mC]*eT; antisense) [compound 546864]
- % inhibition [4]: 0%

Substance: 547577 (e[5mC]*eT*eA*eA*e[5mC]*dA*dG*dT*dA*dT*d[5mC]*dA*d[5mC]*dT*dG*eT*eA*e[5mC]*eT*eA; antisense) [compound 547577]
- % inhibition [8]: 79%

Substance: 547396 (eT*e[5mC]*eA*eG*eG*dT*dA*dA*dA*dG*dT*dT*d[5mC]*dT*dT*eT*eT*eG*e[5mC]*eA; antisense) [compound 547396]
- % inhibition [2]: 49%
